ChEMBL document CHEMBL3045634, “Quantitative structure activity relationship analysis of angiotensin II AT1 receptor antagonists” (Med Chem Res, 2010)

Biological target: T1, Type-1 angiotensin II receptor (Homo sapiens) (UniProt P30556)
T1 sequence (whole entry): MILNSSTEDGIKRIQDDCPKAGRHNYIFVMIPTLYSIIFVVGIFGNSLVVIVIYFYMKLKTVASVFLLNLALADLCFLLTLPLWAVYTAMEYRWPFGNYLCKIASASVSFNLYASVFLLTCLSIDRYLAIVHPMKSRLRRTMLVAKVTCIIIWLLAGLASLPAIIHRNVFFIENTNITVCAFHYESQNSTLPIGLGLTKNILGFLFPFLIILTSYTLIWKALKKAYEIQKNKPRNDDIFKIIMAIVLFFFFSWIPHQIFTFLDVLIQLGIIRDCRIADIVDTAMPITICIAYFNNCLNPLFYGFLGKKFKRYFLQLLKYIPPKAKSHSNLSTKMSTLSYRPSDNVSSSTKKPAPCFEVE
Experiment: (§1) Antagonist activity at angiotensin 2 type-1 receptor (unknown origin)

SMILES	pIC50
CCCCc1ncc(/C=C2/C(=O)N(CCCC)C(=O)N2Cc2ccc(-c3ccccc3)cc2)n1Cc1ccc(C(=O)OC)cc1	6.05

Biological target: T2, Type-1 angiotensin II receptor (Homo sapiens, UniProt P30556)
T2 sequence (P30556 whole entry): T1 sequence (whole entry)
Experiment: as §1

SMILES	IC50
CCCCc1ncc(/C=C2/C(=O)N(CCCC)C(=O)N2Cc2ccsc2)n1Cc1ccc(C(=O)OC)cc1	4.8 nM
CCCCc1ncc(/C=C2/C(=O)N(CCCC)C(=O)N2Cc2ccc(-c3ccccc3)cc2)n1Cc1ccc(C(=O)OC)cc1	884 nM
CCCCc1ncc(/C=C2/C(=O)NC(=O)N2Cc2ccccc2)n1Cc1ccc(C(=O)O)cc1	4 nM
CCCCc1ncc(/C=C2/C(=O)N(CCCC)C(=O)N2CCc2csc(Br)c2)n1Cc1ccc(C(=O)OC)cc1	25.4 nM
CCCCc1ncc(/C=C2/C(=O)NC(=O)N2CCCC)n1Cc1ccc(C(=O)OC)cc1	3.5 nM
CCCCc1ncc(/C=C2/C(=O)N(CCCC)C(=O)N2Cc2ccc3ccccc3c2)n1Cc1ccc(C(=O)OC)cc1	104 nM
CCCCc1ncc(/C=C2\C(=O)N(CCCC)C(=O)N2Cc2csc(C)n2)n1Cc1ccc(C(=O)O)cc1	1.7 nM
CCCCc1ncc(/C=C2\C(=O)NC(=O)N2CCCC)n1Cc1ccc(C2(C(=O)OC)CCCC2)cc1	2.5 nM
CCCCc1ncc(/C=C2/C(=O)N(CCCC)C(=O)N2Cc2cccs2)n1Cc1ccc(C(=O)O)cc1	0.7 nM
CCCCc1ncc(/C=C2/C(=O)N(CCCC)C(=O)N2Cc2csc(C)n2)n1Cc1ccc(C(=O)OC)cc1	1.9 nM
CCCCc1ncc(/C=C2\C(=O)NC(=O)N2Cc2ccccc2)n1Cc1ccc(C(=O)O)cc1	3.4 nM
CCCCc1ncc(/C=C2/C(=O)NC(=O)N2Cc2ccc(Cl)cc2)n1Cc1ccc(C(=O)O)cc1	3 nM
CCCCc1ncc(/C=C2/C(=O)N(CCCC)C(=O)N2Cc2ccc(C)cc2)n1Cc1ccc(C(=O)OC)cc1	34.6 nM
CCCCc1ncc(/C=C2\C(=O)NC(=O)N2Cc2cccs2)n1Cc1ccc(C(=O)O)cc1	2.6 nM
CCCCc1ncc(/C=C2/C(=O)NC(=O)N2CCCC)n1Cc1ccc(-c2nn[nH]n2)cc1	7.1 nM
CCCCc1ncc(/C=C2/C(=O)N(CCCC)C(=O)N2Cc2ccc(C)s2)n1Cc1ccc(C(=O)O)cc1	0.6 nM
CCCCc1ncc(/C=C2\C(=O)N(CCCC)C(=O)N2CCCC)n1Cc1ccc(C(=O)O)cc1	0.5 nM
CCCCc1ncc(/C=C2\C(=O)N(CCCC)C(=O)N2Cc2csc(N)n2)n1Cc1ccc(C(=O)O)cc1	0.5 nM
CCCCc1ncc(/C=C2/C(=O)N(C)C(=O)N2Cc2csc(C)n2)n1Cc1ccc(C(=O)OC)cc1	16.6 nM
CCCCc1ncc(/C=C2/C(=O)N(CCCC)C(=O)N2Cc2cc(C)cs2)n1Cc1ccc(C(=O)O)cc1	1.5 nM
CCCCc1ncc(/C=C2/C(=O)N(CCCC)C(=O)N2Cc2ccsc2)n1Cc1ccc(C(=O)O)cc1	0.9 nM
CCCCc1ncc(/C=C2/C(=O)NC(=O)N2CCCC)n1Cc1ccc(-c2ccccc2-c2nn[nH]n2)cc1	1.4 nM
CCCCc1ncc(/C=C2/C(=O)N(CCCC)C(=O)N2Cc2c[nH]cn2)n1Cc1ccc(C(=O)OC)cc1	54.5 nM
CCCCc1ncc(/C=C2/C(=O)N(CCCC)C(=O)N2Cc2csc(C)n2)n1Cc1ccc(C2(C(=O)O)CCCC2)cc1	8 nM
CCCCc1ncc(/C=C2/C(=O)N(CCCC)C(=O)N2Cc2ccc(C(=O)OC)s2)n1Cc1ccc(C(=O)OC)cc1	4.2 nM

SMILES	IC50
CCCCc1ncc(/C=C2/C(=O)NC(=O)N2CCC(C)C)n1Cc1ccc(C(=O)O)cc1	6.6 nM
CCCCc1ncc(/C=C2/C(=O)NC(=O)N2Cc2cccs2)n1Cc1ccc(C(=O)OC)cc1	7.1 nM
CCCCc1ncc(/C=C2/C(=O)N(CCCC)C(=O)N2Cc2csc(N)n2)n1Cc1ccc(C(=O)O)cc1	0.6 nM
CCCCc1ncc(/C=C2/C(=O)N(CCCO)C(=O)N2Cc2csc(C)n2)n1Cc1ccc(C(=O)OC)cc1	47.9 nM
CCCCc1ncc(/C=C2\C(=O)NC(=O)N2CCCC)n1Cc1ccc(-c2nn[nH]n2)cc1	4.2 nM
CCCCc1ncc(/C=C2/C(=O)N(CCCC)C(=O)N2Cc2ccc(OC)cc2)n1Cc1ccc(C(=O)OC)cc1	9.8 nM
CCCCc1ncc(/C=C2/C(=O)N(CCCC)C(=O)N2Cc2ccc(Cl)cc2)n1Cc1ccc(C(=O)OC)cc1	17.6 nM
CCCCc1ncc(/C=C2/C(=O)NC(=O)N2CCCC)n1Cc1ccc(S(=O)(=O)NC(F)(F)F)cc1	3.3 nM
CCCCc1ncc(/C=C2/C(=O)N(CCCC)C(=O)N2Cc2ccc(C#N)cc2)n1Cc1ccc(C(=O)OC)cc1	11.1 nM
CCCCc1ncc(/C=C2/C(=O)N(CCCC)C(=O)N2Cc2ccoc2)n1Cc1ccc(C(=O)OC)cc1	8.3 nM
CCCCc1ncc(/C=C2/C(=O)N(CCCC)C(=O)N2Cc2cccc(C)c2)n1Cc1ccc(C(=O)OC)cc1	18.5 nM
CCCCc1ncc(/C=C2/C(=O)N(CCCC)C(=O)N2Cc2ccc(C(F)(F)F)cc2)n1Cc1ccc(C(=O)OC)cc1	159 nM
CCCCc1ncc(/C=C2/C(=O)N(CCC)C(=O)N2Cc2csc(C)n2)n1Cc1ccc(C(=O)OC)cc1	9 nM
CCCCc1ncc(/C=C2/C(=O)NC(=O)N2Cc2cccs2)n1Cc1ccc(C(=O)O)cc1	2.3 nM
CCCCc1ncc(/C=C2/C(=O)N(CCCC)C(=O)N2C=C(C)C)n1Cc1ccc(C(=O)OC)cc1	11.1 nM
CCCCc1ncc(/C=C2/C(=O)N(CCCC)C(=O)N2Cc2ccc(O)c(O)c2)n1Cc1ccc(C(=O)OC)cc1	4.9 nM
CCCCc1ncc(/C=C2\C(=O)NC(=O)N2CCC(C)C)n1Cc1ccc(C(=O)O)cc1	4.9 nM
CCCCc1ncc(/C=C2/C(=O)N(CCCC(F)(F)F)C(=O)N2Cc2csc(C)n2)n1Cc1ccc(C(=O)OC)cc1	70 nM
CCCCc1ncc(/C=C2/C(=O)N(CCCC)C(=O)N2c2ccccc2)n1Cc1ccc(C(=O)OC)cc1	6.1 nM
CCCCc1ncc(/C=C2/C(=O)N(CCCC)C(=O)N2Cc2c[nH]c(C)n2)n1Cc1ccc(C(=O)OC)cc1	245 nM
CCCCc1ncc(/C=C2/C(=O)N(CSCC)C(=O)N2Cc2csc(C)n2)n1Cc1ccc(C(=O)OC)cc1	9.6 nM
CCCCc1ncc(/C=C2/C(=O)N(CCCC)C(=O)N2Cc2cccc(Cl)c2)n1Cc1ccc(C(=O)OC)cc1	117 nM
CCCCc1ncc(/C=C2/C(=O)N(CCCC)C(=O)N2CCCC)n1Cc1ccc(S(=O)(=O)NC(F)(F)F)cc1	29.6 nM
CCCCc1ncc(/C=C2\C(=O)N(CCCC)C(=O)N2Cc2cccs2)n1Cc1ccc(C(=O)O)cc1	0.6 nM
CCCCc1ncc(/C=C2/C(=O)N(CCCC)C(=O)N2Cc2ccc(N)cc2)n1Cc1ccc(C(=O)OC)cc1	3 nM
